Measured values published in US8865237B2, “Method of preparing dialysed extract of fenugreek seeds which induces hypoglycemia, mediated, in part, via stimulation of insulin signaling pathway” (Department of Biotechnology, priority 2006, dated 2014).

How the values were obtained:
[1] = tested on: CHO clones expressing insulin receptor and GLUT4eGFP; assay: Glucose transport (2-DG uptake) in GLUT4 overexpressing CHO cells; format: cell-based; details: wortmannin 20 min or BIS-1 100 nmol/l 1 h, then extract 30 min
Protocol: Cell Culture In Vitro Studies. […] For preadipocyte differentiation 80% confluent preadipocytes were cultured for 2 days in differentiation medium (DMEM supplemented with 1 μmol/l insulin, 0.5 mmol/l IBMX, 0.25 μmol/l DEX containing 10% FBS) and for 2 days in DMEM supplemented with 1 μmol/l insulin and 10% FBS. Thereafter the cells were grown for an additional 4-5 days in DMEM containing 10% FBS. Media was changed on every second day without any additional supplements. CHO clones expressing insulin receptor and GLUT4eGFP protein were grown in media supplemented with hygromycin additionally (100 μg/ml). Penicillin (100 units/ml) and streptomycin ([…]) were added routinely to cultures and all cell lines were cultivated at 37° C. in a 5% CO2 enriched humidified atmosphere.
Effect of FSE on glucose transport. […] Protein was estimated and the radioactivity incorporated into cells was quantified by scintillation counting (Packard, Albertville, Minn.). Nonspecific uptake, measured in the presence of 10 μmol/l cytochalasin B, was subtracted from all values. […]
(§1) Effect of FSE on glucose transport in GLUT4 overexpressing cells. […] CHO cells overexpressing insulin receptor as well as GLUT4 were incubated in the presence of various concentrations of FSE for 30 min and glucose transport was measured by determining the rates 2DG uptake. […]

[2] = tested on: GLUT4 in 3T3-L1 adipocytes; assay: GLUT4 translocation in 3T3-L1 cells (mycGLUT4 ELISA, membrane fractionation); format: cell-based
Protocol: GLUT4 Translocation Assay in GLUT4 Overexpressing Cell lines. CHO clones expressing insulin receptor and GLUT4eGFP protein were plated on a microscopic chamber slide (ICN, Costa Mesa, Calif.), serum starved in DMEM containing 1 mg/ml BSA for 3 h, followed by treatment with 100 nmol/l insulin or 25 mg/l FSE for 10 and 30 min respectively. Treatment was terminated by keeping the slide on ice and washing with cold PBS. Cells were fixed with 3% para-formaldehyde (PF) in PBS for 15 min at room temperature. GLUT4 translocation was investigated by using LSM confocal microscope (Zeiss LSM 510, Heidelberg, Germany). 3T3-L1 expressing mycGLUT4 were grown in 96 well plated then differentiated to adipocytes, serum starved for 3 h and incubated with insulin or FSE for 10 and 30 min respectively. To examine the specificity of the signaling pathway the cells were pretreated with wortmannin (100 nmol/l) or BIS-1 (100 nmol/l) for 20 min and 1 h respectively. […] The optical absorbance of the supernatant was measured at 414 nm. […]
as §1

[3] = tested on: PKCλ in HepG2 cells; assay: Confocal microscopy analysis of PKC translocation in HepG2 cells; format: cell-based, human; details: HepG2, pretreatment before extract
Protocol: Confocal microscopy analysis of PKC translocation in HepG2 cells. HepG2 cells were serum starved for 3 h and were treated with either 100 nmol/l insulin for 10 min or 25 mg/l FSE for 30 min. In some wells, cells were pretreated with pharmacological inhibitors before treating with extract. Cells were washed quickly with cold PBS and fixed by treating with 3% paraformaldehyde in PBS Ph 7.4, for 15 min at room temperature, rinsed with PBS three times and quenched with 1% glycine for 10 min. Cells were permeabilised with 0.025% saponin in PBS, for 5 min, blocked with PBS containing 5% FBS for 1 h at room temperature, incubated with anti-PKC antibody for overnight at 4° C. in PBS oontaining 2.5% FBS. Cells were washed four times for 5 min each with PBS. Cells were then incubated with a flourescein isothoicyanate conjugated anti-rabbit antibody for additional 1 h, washed again and mounted using vectashield (Vector Laboratories, Burlingame, Calif.) for visualization by confocal microscopy. Rabbit IgG was used as an isotype control.
Effect of FSE on PKCλ translocation in 3T3-L1 and RepG2 cells. […] To investigate the link between FSE induced 1R phosphorylation and GLUT4 translocation, translocation of PKCλ was studied in both 3T3-L1 and HepG2. […] Wortmannin and bis-1 decreased the fluorescence associated with the membrane.

[4] = tested on: PKCλ in 3T3-L1 adipocytes; assay: PKCλ in plasma membrane fraction of 3T3-L1 adipocytes (immunoblotting); format: cell-based; details: wortmannin 100 nmol/l 20 min, BIS-1 100 nmol/l 1 h
Protocol: Isolation of plasma membrane fraction and immunoblotting detection of PKCλ and GLUT4 in 3T3-L1 adipocytes. Differentiated 3T3-L1 cells in 100 mm petri dishes were serum starved for 3 h in DMEM supplemented with 0.1% BSA and then treated with 100 nmol/l insulin or […] for 10 min and 30 min respectively. In some cases cells were pre-treated with 100 nmol/l wortmannin, for 20 min or 100 nmol/l BIS-1 for 1 h followed by treatment with extract t for additional 30 min. Plasma membrane fractionation of 3 T3-L1 adipocytes was performed as previously described (28) with slight modifications that 1 mmol/l PMSF, 1 mmol/l Na3VO4 and a cocktail of protease inhibitors were added to the lysis buffers. Equal protein was diluted with 5× Laemmli buffer, electrophoresied by 10% SDS-PAGE and transferred on to a nitrocellulose membrane. The membrane was probed with anti-nPKCλ or anti-GLUT4 antibody.
Effect of FSE on PKCλ translocation in 3T3-L1 and RepG2 cells. […] To investigate the link between FSE induced 1R phosphorylation and GLUT4 translocation, translocation of PKCλ was studied in both 3T3-L1 and HepG2. […] In unstimulated HepG2 cells the immunofluorescence was minimum as visualized by confocal microscopy. […] Wortmannin and bis-1 decreased the fluorescence associated with the membrane.

[5] = tested on: insulin receptor, IRS-1 and p85 subunit of PI3-Kinase in HepG2 cells; assay: Phosphorylation of insulin signaling proteins in HepG2 cells (western blot); format: cell-based, human; details: HepG2, 25 mg/l FSE or 100 nmol/l insulin
Protocol: (§2) Effect of FSE on insulin signaling proteins in 3T3-L1 Adipocytes and HepG2 cell lines. Differentiated 3T3-L1 adipocytes or HepG2 cell were serum starved in F-12K medium containing 7 mM glucose and 0.1% BSA for 16 h followed by changing medium to DMEM containing 25 mmol/l glucose and incubated for 1 h. Subsequently the cells were treated with 100 nmol/l insulin or 25 mg/l FSE for 10 min and 30 min respectively. Untreated cells were incubated with PBS. Cells were washed with cold PBS, removed from the plates using a rubber policeman, lysed in lysis buffer (50 mmol/l Tris-HCl pH7.5, 150 mmol/l NaCl, 1% NP-40, 2 mmol/l EGTA, 2 mmol/l Na3VO4, 100 mmol/l Na4P2O7, […], 1 mmol/l PMSF and protease inhibitor cocktail) on ice for 30 min, passed through 261/2G syringe 20 times and finally centrifuged at 15,000×g for 10 min at 4° C. Equal amounts of protein (100 μg) were diluted in 5× Laemmli reducing buffer (250 mmol/l Tris-HCl p 6.8, 10% SDS, 0.5% bromophenol blue, 50% glycerol, 12.5% β-mercaptoethanol) boiled for 5 min at 100° C. and resolved by 8% SDS-PAGE by running proteins below 43 kDa out of the gel. The proteins form the gel were transferred to nitrocellulose membrane using transfer buffer (CAPS buffer pH 10.7 containing 10% methanol) by applying 150 mA current for 2 h. […]

[6] = tested on: insulin receptor, IRS-1 and p85 subunit of PI3-Kinase in 3T3-L1 adipocytes; assay: Phosphorylation of insulin signaling proteins in 3T3-L1 adipocytes (western blot); format: cell-based; details: 3T3-L1, 25 mg/l FSE or 100 nmol/l insulin
Protocol: as §2

[7] = tested on: liver glucokinase (GK); assay: Liver glucokinase assay in STZ-BALB/cJ mice; format: in vivo
Protocol: BALB/cJ or Swiss albino mice (male, 8-10 week old) were housed under environmentally controlled conditions (22+/−2° C.) with a 12 h light/dark cycle and had free access to standard rodent pellet food and water. Animals were given 5 daily intraperitoneal (IP) injection of freshly prepared STZ (40 mg/kg in 0.5 mol/l sodium citrate pH 4.5) or AXN (50 mg/kg in 0.9% sodium chloride). Ten hours before the experiments, animals were moved to new cages in which no food was available. AXN injected mice that achieved a glucose level of 200-300 mg/dl and STZ injected mice that achieved a glucose level of 275-400 mg/dl were used as hyperglycemic models in this study. Mice were divided into, diabetic control group, insulin group and FSE group (n=5 in each group). Mice were injected (IP) with vehicle (PBS), insulin (1.5 U/kg) or extract (1, 5 or 15 mg/kg). Blood was collected before injection (0 min), 90 and 240 min after the treatments and serum blood glucose levels were estimated. In some experiments STZ-BALB/cJ mice were sacrificed 90 min after the treatments, and the livers were harvested for analysis. In another set of experiments, AXN-induced Swiss albino diabetic mice were injected with PBS or extract for 5 days (n=5). Blood was collected on day 0, 5, 10 and 15 and body weight was monitored on same day. Acidified insulin from bovine pancreas diluted in PBS was used as a positive test compound in all the experiments. All animal experiments have been performed following the requirement of the committee for the Purpose of Control and Supervision of Experiments on Animals (CPCSEA), Government of India, and after permission of the Institute's Animal Care and Use Committee (IACUC).
Glucokinase assay. Liver samples were homogenized in three volumes of ice cold buffer containing 50 mmol/l Tris-HCl, pH 7.4, 300 mmol/l sucrose, 100 mmol/l KCl, 1 mmol/l EDTA 2.5 mmol/1 mercaptoethanol and centrifuged at 12,000×g for 15 min (12). […] GK activity was calculated as the difference between the glucose phosphorylation capacity at 100 and 0.5 mmol/l glucose. […]

Row | Compound | effect of inhibitor pretreatment on FSE stimulated glucose uptake [1] | effect of inhibitor pretreatment on FSE induced GLUT4 translocation ([2]; wortmannin 100 nmol/l 20 min, BIS-1 100 nmol/l 1 h) | effect of inhibitors on fluorescence associated with the membrane [3] | effect of inhibitor pretreatment on translocation of PKCλ induced by FSE [4] | IR-α phosphorylation [5] | IR-α phosphorylation [6] | enhancement of GK activity compared to diabetic control ([7]; STZ-diabetic BALB/cJ mice, 90 min, FSE 15 mg/kg) [%] | activation of GK compared to control treated animals ([7]; diabetic animals, 90 min treatment) [fold] | GK activity ([7]; liver removed 90 min after treatment, insulin 1.5 U/kg or FSE 15 mg/kg) [nmol/min/mg] | enhancement of glucose uptake ([2]; 100 nmol/l insulin, under similar experimental conditions) [fold]
1 | CN(C)CCCn1cc(C2=C(c3c[nH]c4ccccc34)C(=O)NC2=O)c2ccccc21 [BIS-1] | abrogated | masked | decreased | inhibited | – | – | – | – | – | –
2 | insulin | – | – | – | – | did not exhibit | did not exhibit | 460 | 4.5 | 690.0 | 2.5
